Test results: paper PMC7714403 (JCI Insight, 2020)

Legend:
JAK1 = biological target: T1, JAK1 (Homo sapiens, UniProt P23458); assay: KdELECT binding assay
T1 construct: purchased Eurofins DiscoverX

MOLM13-Luc+ cells = assay: MOLM13-Luc+ xenograft model; type: in vivo, NSG mice; settings: 3 weeks
Description: Engraftment and growth of leukemic cells were monitored by noninvasive bioluminescence imaging in cell line xenograft models, as previously done ([47]). Details on the cell engraftment and dosing in mouse models are provided in the Supplemental Methods.
Cell viability of primary samples
HS5-GFP human bone marrow stromal cells were plated and cultured for 72 hours to near confluence.
MOLM13 cells were then seeded onto HS5-GFP cells to establish a co-culture. Twenty-four hours later, cells were treated with increasing concentrations of drug for an additional 72 hours. MOLM13 and HS5-GFP cells were then separated and MTT assay s were performed for cell viability assessment of each cell population.
For murine or human primary AML cells, 100,000 cells/well were plated in a 96-well plate and treated with increasing concentrations of drug. Cell viability, via trypan blue, was measured every 24 hours. If the viability fell below 50% or at 72 hours of treatment, whichever came earlier, cell viability of each plate was measured via CellTiter-Glo. Primary human AML cells were obtained from the OSUCCC Leukemia Tissue Bank Shared […]
Primary AML samples were analyzed by targeted gene sequencing of 80 genes, as previously described (1). Samples were pooled and analyzed on a MiSeq system using the Illuminia MiSeq Reagent Kit v3. […]
Luc+ or MOLM13-Res -Luc+ cells, 0.5 million OCI-AML3 -Luc+ cells, and 10,000 Ba/F3-FLT3-ITD/F691L-GFP+ cells. Weekly tumor engraftment of cell line xenograft models were assessed after injection of D-luciferin (150mg/kg i.p.; Gold Biotechnology, Inc, St. Louis, MO) on Xenogen IVIS-200 imaging system (Perkin Elmer, Waltham, MA) or GFP monitoring by peripheral blood via BD LSR II flow cytometer (BD Biosciences, San Jose, CA). Signal intensity was analyzed using Living Image Software (PerkinElmer) or FlowJo v10.0.08 software (FlowJo, LLC, Ashland, OR). […]
At indicated time points, cells were collected and washed with PBS. CD11b expression was measured using anti-CD11b -APC antibody (BioLegend, San Diego, CA). […]

CDC2 = CDC2 (Homo sapiens, UniProt P06493); assay: KiNativ, OCI cells live cell; type: cell-based; settings: 2 h
DGKA = DGKA (Homo sapiens, UniProt P23743); assay: KiNativ, OCI cells live cell; type: cell-based; settings: 2 h, labeling site ATP, peptide […]
FES = FES (Homo sapiens, UniProt P07332); assay: KiNativ, OCI cells live cell; type: cell-based; settings: 2 h, labeling site Lys1, peptide […]
MAP3K3 = MAP3K3 (Homo sapiens, UniProt Q99759); assay: KiNativ, OCI cells live cell; type: cell-based; settings: 2 h, labeling site Lys1, peptide […]
MARK1, MARK2 = assay: KiNativ, OCI cells live cell; type: cell-based, human; settings: labeling site Lys1, peptide EVAVKIIDK
PIP4K2C = biological target: T2, PIP4K2C (Homo sapiens, UniProt Q8TBX8); assay: KiNativ, OCI cells live cell; type: cell-based; settings: 2 h, labeling site ATP
T2 sequence (Q8TBX8 1-421): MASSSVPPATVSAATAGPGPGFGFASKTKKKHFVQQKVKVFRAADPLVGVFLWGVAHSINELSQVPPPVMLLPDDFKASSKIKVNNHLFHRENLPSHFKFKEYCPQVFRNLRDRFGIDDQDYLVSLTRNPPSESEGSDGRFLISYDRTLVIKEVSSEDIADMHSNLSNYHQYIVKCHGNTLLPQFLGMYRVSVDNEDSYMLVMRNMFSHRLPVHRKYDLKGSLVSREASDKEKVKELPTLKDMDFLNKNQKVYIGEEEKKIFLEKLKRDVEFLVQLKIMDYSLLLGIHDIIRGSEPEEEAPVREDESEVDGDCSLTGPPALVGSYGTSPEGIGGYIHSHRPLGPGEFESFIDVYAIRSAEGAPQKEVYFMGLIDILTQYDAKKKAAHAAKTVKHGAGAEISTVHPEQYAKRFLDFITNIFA

PIP5K3 = PIP5K3 (Homo sapiens, UniProt Q9Y2I7); assay: KiNativ, OCI cells live cell; type: cell-based; settings: labeling site ATP, peptide GGKSGAAFYATEDDRFILK
RSK1 domain1 = biological target: T3, RSK1 domain1 (Homo sapiens, UniProt Q15418); assay: KiNativ, OCI cells live cell; type: cell-based; settings: 2 h
T3 construct: RSK1 domain1

Wee1 = Wee1 (Homo sapiens, UniProt P30291); assay: KiNativ, OCI cells live cell; type: cell-based; settings: 2 h, labeling site Lys2, peptide […]
Sequence of Wee1 (P30291 whole entry): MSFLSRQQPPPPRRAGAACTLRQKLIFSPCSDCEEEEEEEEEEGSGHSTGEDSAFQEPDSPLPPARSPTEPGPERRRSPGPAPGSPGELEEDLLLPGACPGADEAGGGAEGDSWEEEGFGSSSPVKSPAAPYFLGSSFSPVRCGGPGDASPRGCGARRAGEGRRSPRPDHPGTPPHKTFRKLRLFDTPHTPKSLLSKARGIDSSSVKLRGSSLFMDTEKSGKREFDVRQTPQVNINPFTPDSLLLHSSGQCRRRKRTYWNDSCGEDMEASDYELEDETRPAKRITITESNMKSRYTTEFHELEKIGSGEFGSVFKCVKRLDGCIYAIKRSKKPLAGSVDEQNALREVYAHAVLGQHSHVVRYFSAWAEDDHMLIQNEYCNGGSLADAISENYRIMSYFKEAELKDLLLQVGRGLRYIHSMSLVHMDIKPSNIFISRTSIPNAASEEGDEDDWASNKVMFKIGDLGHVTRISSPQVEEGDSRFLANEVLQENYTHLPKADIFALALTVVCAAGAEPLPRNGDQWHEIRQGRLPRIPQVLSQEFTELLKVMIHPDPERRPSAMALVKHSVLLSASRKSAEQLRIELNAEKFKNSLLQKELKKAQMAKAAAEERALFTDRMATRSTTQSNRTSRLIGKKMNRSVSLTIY

Sequence of CDC2 (P06493 whole entry): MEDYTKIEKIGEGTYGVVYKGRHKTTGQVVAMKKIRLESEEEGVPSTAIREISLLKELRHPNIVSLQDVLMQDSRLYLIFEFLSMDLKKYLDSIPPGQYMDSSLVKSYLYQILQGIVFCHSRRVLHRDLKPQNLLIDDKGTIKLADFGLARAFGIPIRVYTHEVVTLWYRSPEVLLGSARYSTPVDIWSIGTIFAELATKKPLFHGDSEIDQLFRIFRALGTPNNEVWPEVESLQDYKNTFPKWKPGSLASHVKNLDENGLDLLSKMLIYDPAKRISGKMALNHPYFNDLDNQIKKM
T3 sequence (Q15418 whole entry, the tested form may be a part): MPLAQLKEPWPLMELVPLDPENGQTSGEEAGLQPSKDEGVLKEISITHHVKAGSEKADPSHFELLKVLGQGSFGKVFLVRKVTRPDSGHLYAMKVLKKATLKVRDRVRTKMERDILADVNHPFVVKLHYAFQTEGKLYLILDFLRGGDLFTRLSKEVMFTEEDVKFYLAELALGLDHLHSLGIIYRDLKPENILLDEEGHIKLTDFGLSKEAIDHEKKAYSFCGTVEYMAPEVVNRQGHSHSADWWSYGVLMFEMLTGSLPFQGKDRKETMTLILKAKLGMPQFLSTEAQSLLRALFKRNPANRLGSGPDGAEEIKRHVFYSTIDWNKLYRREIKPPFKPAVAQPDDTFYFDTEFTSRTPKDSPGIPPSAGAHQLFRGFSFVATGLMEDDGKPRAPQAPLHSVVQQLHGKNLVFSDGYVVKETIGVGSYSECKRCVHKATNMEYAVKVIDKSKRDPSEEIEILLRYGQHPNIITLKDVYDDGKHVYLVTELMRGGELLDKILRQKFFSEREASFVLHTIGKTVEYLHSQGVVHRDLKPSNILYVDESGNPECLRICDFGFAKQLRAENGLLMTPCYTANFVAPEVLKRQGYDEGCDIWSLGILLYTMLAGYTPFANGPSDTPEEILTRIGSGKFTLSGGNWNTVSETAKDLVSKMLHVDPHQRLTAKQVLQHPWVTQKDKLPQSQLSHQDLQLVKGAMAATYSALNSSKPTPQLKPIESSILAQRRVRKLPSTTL
Sequence of PIP5K3 (Q9Y2I7 whole entry, the tested form may be a part): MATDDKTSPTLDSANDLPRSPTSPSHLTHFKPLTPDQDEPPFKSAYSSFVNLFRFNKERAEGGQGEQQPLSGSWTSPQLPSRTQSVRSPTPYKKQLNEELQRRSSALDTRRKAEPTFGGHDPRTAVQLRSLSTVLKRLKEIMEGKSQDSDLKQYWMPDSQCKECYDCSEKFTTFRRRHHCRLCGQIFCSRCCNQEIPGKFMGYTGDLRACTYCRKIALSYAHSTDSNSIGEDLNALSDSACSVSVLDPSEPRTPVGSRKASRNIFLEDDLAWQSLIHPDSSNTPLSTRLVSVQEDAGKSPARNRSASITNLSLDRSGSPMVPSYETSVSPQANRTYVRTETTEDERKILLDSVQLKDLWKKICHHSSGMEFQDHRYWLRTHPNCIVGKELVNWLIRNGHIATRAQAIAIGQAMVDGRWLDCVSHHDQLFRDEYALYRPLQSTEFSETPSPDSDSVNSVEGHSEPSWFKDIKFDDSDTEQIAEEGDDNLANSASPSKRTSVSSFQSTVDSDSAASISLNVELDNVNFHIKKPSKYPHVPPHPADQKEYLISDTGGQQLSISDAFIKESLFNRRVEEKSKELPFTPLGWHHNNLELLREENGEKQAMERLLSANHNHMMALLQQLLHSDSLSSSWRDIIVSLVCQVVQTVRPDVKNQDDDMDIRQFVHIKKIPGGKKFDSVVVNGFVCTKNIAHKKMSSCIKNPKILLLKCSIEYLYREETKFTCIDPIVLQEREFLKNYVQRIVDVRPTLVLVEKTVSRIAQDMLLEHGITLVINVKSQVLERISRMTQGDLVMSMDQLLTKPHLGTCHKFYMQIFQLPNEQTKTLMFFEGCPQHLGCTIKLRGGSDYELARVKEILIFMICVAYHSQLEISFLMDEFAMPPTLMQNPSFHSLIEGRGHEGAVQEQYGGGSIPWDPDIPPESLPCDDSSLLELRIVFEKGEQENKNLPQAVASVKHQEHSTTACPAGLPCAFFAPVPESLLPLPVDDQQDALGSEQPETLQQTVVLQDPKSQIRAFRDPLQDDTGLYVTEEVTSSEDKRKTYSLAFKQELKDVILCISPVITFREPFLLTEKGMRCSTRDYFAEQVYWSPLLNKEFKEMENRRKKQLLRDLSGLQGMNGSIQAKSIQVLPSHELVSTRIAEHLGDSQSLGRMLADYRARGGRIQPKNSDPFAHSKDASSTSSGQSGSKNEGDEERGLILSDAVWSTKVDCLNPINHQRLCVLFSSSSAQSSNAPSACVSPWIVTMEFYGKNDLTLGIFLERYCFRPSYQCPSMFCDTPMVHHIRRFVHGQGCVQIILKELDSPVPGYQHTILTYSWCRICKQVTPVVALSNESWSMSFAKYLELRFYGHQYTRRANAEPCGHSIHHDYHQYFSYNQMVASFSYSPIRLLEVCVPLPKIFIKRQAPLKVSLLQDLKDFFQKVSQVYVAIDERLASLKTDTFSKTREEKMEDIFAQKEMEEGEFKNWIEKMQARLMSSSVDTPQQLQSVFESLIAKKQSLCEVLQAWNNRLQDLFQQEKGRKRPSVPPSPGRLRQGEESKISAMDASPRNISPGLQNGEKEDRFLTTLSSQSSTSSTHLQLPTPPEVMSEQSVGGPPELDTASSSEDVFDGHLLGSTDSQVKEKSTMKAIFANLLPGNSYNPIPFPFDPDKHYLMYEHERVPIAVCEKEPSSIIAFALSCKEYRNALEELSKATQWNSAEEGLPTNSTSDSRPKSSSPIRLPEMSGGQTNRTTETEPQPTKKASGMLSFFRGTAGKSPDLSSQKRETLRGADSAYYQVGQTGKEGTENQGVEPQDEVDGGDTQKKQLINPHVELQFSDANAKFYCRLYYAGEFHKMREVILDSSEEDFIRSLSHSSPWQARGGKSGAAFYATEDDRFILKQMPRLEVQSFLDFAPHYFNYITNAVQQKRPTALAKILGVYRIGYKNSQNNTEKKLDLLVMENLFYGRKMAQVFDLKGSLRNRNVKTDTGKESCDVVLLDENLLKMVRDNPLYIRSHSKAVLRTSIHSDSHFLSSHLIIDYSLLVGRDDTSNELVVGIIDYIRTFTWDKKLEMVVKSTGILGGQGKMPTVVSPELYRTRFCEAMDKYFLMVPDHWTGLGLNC
Sequence of DGKA (P23743 whole entry): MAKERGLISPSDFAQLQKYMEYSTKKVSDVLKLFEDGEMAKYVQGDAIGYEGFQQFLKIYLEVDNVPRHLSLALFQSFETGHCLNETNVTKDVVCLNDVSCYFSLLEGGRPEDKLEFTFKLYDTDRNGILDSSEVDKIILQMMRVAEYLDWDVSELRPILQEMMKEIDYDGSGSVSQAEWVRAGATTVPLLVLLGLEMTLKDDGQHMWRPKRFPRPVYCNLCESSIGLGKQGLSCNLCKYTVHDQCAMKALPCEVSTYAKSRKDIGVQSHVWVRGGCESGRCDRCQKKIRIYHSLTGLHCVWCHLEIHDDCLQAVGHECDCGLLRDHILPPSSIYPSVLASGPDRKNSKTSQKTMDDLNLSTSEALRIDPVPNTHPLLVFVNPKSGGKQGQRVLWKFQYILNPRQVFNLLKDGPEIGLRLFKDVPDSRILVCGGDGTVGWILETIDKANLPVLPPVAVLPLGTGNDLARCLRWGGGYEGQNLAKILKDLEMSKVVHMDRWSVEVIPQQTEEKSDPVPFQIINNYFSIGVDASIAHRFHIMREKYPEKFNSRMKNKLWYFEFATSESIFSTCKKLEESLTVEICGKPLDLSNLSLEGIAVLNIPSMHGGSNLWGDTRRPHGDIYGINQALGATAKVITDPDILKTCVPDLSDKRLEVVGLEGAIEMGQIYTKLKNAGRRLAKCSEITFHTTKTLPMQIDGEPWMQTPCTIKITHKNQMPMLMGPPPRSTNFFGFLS

With `CN1CCN(Cc2ccc(Nc3ncc(Cl)c(Nc4ccccc4S(=O)(=O)N(C)C)n3)cc2)CC1` [TP-0903] the Kd (JAK1) was 23 nM, the “Survival prolonged compared with vehicle” value (MOLM13-Luc+ cells; 60 mg/kg 5 days a week) was 13 days and the “Survival prolonged compared with vehicle” value (MOLM13-Luc+ cells; 60 mg/kg once daily continuously) was 17 days. For the same compound, the “Leukemia outgrowth (bioluminescence)” value (MOLM13-Luc+ cells; 60 mg/kg) was “suppressed leukemia outgrowth”, the inhibition at 0.1 µM (CDC2; labeling site Lys1, peptide TTGQVVAMKK) was -4.5% and the inhibition at 0.1 µM (CDC2; labeling site Lys2, peptide DLKPQNLLIDDK) was -2.5%. The inhibition at 0.1 µM (CDC2; labeling site Protein Kinase Domain, peptide KPLFHGDSEIDQLFR) was -37.1%, the inhibition at 0.1 µM (DGKA) was -41.6% and the inhibition at 0.1 µM (FES) was 47.3%. It also gave an inhibition at 0.1 µM (MAP3K3) of 20%, an Inhibition (MARK1, MARK2) of 26.6% and an inhibition at 0.1 µM (PIP4K2C; peptide TLVIKEVSSEDIADMHSNLSNYHQYIVK) of -9.8%. It also gave an inhibition at 0.1 µM (PIP4K2C; peptide VKELPTLKDMDFLNK) of -19.6%, an Inhibition (PIP5K3) of 18.4% and an inhibition at 0.1 µM (RSK1 domain1; labeling site Activation Loop, peptide LTDFGLSKEAIDHEKK) of 44.9%. It also gave an inhibition at 0.1 µM (RSK1 domain1; labeling site Lys1, peptide KVTRPDSGHLYAMKVLK) of 42.9% and an inhibition at 0.1 µM (Wee1) of 67.8%.
